Numbers after ± are expanded uncertainties.
Columns and labels:
[1] = refractive index (Na D-line) (dimensionless); settings: 101.33 kPa, Liquid, Standard Abbe refractometry
[2] = 101.33 kPa, Liquid, Vibrating tube method

refractive index ([1]; 293.15 K)	mass density ([2]; 293.15 K) [kg/m3]	Structure (SMILES)	other results
1.4068 ± 0.0011	817.6 ± 2.2	CCCC(=O)CCC [4-heptanone]	
1.4075 ± 0.0011	808.4 ± 2.1	CC(C)CCO [3-methylbutan-1-ol]	
1.3884 ± 0.0011	804.8 ± 2.1	CC(=O)C(C)C [3-methyl-2-butanone]	
1.3324 ± 0.0011	999.9 ± 2.7	O [water]	
1.372 ± 0.0011	900.1 ± 2.4	CCOC(C)=O [ethyl acetate]	
1.4601 ± 0.0011	849 ± 2.3	CCCCCCCC/C=C\CCCCCCCCO [(Z)-9-octadecen-1-ol]	
		CCCCCC [hexane]	refractive index ([1]; 298.15 K): 1.3729 ± 0.0011; mass density ([2]; 298.15 K): 660.4 ± 1.8 kg/m3
		CCCCCCCCCCCCO [dodecan-1-ol]	mass density ([2]; 297.15 K): 831.1 ± 2.2 kg/m3
1.4374 ± 0.0011	829.6 ± 2.2	CCCCCCCCCCO [decan-1-ol]	
1.4421 ± 0.0011	968.4 ± 2.6	CC(=O)OC1CCCCC1 [cyclohexyl ethanoate]	
1.3982 ± 0.0011		CCCC(=O)O [butanoic acid]	mass density ([2]; 298.15 K): 952.3 ± 2.5 kg/m3
1.4327 ± 0.0011	828.5 ± 2.2	CCCCCCCCCO [nonan-1-ol]	
	810.7 ± 2.2	CCCCCCCCN(CCCCCCCC)CCCCCCCC [trioctylamine]	refractive index ([1]; 292.15 K): 1.4505 ± 0.0011
		COC(C)(C)C [2-methoxy-2-methylpropane]	refractive index ([1]; 298.15 K): 1.3664 ± 0.0011; mass density ([2]; 298.15 K): 734.7 ± 2 kg/m3

Structure (SMILES)	refractive index ([1]; 293.15 K)	mass density ([2]; 293.15 K) [kg/m3]	other results
CC(=O)CC(C)C [4-methylpentan-2-one]	1.3958 ± 0.0011		mass density ([2]; 298.15 K): 796.1 ± 2.1 kg/m3
CCC(C)=O [butanone]	1.3793 ± 0.0011		mass density ([2]; 298.15 K): 798.2 ± 2.1 kg/m3
CCCCOC(=O)c1ccccc1C(=O)OCCCC [dibutyl phthalate]	1.4909 ± 0.0011	1047.1 ± 2.8	
Cc1ccccc1 [toluene]	1.496 ± 0.0011	866.7 ± 2.3	
COC(=O)c1ccccc1C(=O)OC [dimethyl 1,2-benzenedicarboxylate]	1.5135 ± 0.0011	1190.4 ± 3.2	
